Test results: PMC2999670 (The Journal of steroid biochemistry and molecular biology, 2010)
Substitutions are numbered along the chain they refer to. Like-named read-outs stand apart in the source and are kept apart here.

Columns and labels:
[1] = target: T1, R195P-1 mutant of 3β-HSD1 (Homo sapiens, UniProt P14060, R196P); test: Michaelis-Menten kinetics of 3β-HSD substrate; assay type: biochemical; details: Table 2, substrate DHEA 1–100 μM, NAD+ 0.2 mM, pH 7.4
T1 sequence (P14060 1-373 R196P): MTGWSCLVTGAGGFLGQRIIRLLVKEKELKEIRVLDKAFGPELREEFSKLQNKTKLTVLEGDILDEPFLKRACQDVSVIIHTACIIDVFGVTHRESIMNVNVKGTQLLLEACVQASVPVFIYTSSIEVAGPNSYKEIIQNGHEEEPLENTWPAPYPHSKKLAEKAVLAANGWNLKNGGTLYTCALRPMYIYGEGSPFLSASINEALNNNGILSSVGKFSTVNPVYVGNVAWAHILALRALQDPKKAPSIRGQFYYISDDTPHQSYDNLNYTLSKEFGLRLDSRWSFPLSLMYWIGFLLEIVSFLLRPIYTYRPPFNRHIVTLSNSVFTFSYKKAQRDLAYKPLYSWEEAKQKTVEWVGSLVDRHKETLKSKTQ

[2] = target: T2, H156Y-1 mutant of 3β-HSD1 (Homo sapiens, UniProt P14060, H157Y); test: Michaelis-Menten kinetics of 3β-HSD substrate; assay type: biochemical; details: Table 4; substrate DHEA 3-100 μM, NAD+ 200 μM, 27° C, pH 7.4
T2 sequence (P14060 1-373 H157Y): T1 sequence (P14060 1-373 R196P) with H157Y, P196R

[3] = target: T3, P195R-2 mutant of 3β-HSD2 (Homo sapiens, UniProt P26439, P195R); test: Michaelis-Menten kinetics of 3β-HSD substrate; assay type: biochemical; details: Table 2, substrate DHEA 1–100 μM, NAD+ 0.2 mM, pH 7.4
T3 sequence (P26439 1-372 P195R): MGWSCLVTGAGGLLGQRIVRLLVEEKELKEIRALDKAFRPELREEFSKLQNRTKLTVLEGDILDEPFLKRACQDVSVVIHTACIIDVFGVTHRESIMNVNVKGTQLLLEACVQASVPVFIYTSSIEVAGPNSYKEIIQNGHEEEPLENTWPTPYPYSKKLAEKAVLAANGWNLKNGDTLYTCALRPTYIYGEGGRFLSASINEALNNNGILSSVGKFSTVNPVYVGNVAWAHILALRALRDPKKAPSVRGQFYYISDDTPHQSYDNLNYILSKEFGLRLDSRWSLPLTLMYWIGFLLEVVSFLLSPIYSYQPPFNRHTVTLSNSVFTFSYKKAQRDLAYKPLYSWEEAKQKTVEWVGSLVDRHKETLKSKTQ

human 3β-HSD2 [4] = target: T4, human 3β-HSD2 (Homo sapiens, UniProt P26439); test: Michaelis-Menten kinetics of 3β-HSD substrate; assay type: biochemical; details: pH 7.4
T4 sequence (P26439 1-372): T3 sequence (P26439 1-372 P195R) with R195P

human 3β-HSD1 [5] = target: T5, human 3β-HSD1 (Homo sapiens, UniProt P14060); test: Michaelis-Menten kinetics of 3β-HSD substrate; assay type: biochemical; details: pH 7.4
T5 sequence (P14060 whole entry): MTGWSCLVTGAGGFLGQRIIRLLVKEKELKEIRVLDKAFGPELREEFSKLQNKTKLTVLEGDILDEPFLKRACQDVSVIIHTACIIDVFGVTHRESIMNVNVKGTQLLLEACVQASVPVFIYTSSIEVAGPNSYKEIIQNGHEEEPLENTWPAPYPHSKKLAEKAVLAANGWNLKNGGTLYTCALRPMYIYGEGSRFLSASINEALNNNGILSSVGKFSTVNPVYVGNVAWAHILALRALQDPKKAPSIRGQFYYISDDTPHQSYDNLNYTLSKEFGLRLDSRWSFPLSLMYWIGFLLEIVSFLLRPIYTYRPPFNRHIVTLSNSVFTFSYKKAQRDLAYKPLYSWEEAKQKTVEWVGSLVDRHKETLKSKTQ

human 3β-HSD2 [6] = target: T4, human 3β-HSD2; test: Inhibition of 3β-HSD activity of purified enzyme, Dixon analysis; assay type: biochemical
human 3β-HSD1 [7] = target: T5, human 3β-HSD1; test: as above; assay type: biochemical
[8] = system: MCF-7 Tet-off 3β-HSD2 aromatase cells; details: read-out: IC50, proliferation; DHEA-stimulated growth; cited from earlier work
[9] = target: T2, H156Y-1 mutant of 3β-HSD1; test: Inhibition of 3β-HSD activity of purified enzyme, Dixon analysis; assay type: biochemical
[10] = system: other enzymes in steroidogenesis (e.g., 17β-HSD); details: cited from earlier work
[11] = system: MCF-7 Tet-off 3β-HSD1 aromatase cells; details: cited from earlier work
[12] = system: MCF-7 Tet-off 3β-HSD1 aromatase cells; details: read-out: EC50, stimulation of growth; cited from earlier work
[13] = system: MCF-7 Tet-off 3β-HSD2 aromatase cells; details: read-out: EC50, stimulation of growth; cited from earlier work
[14] = system: MCF-7 Tet-off 3β-HSD1 aromatase cells; test: Inhibition of DHEA-stimulated proliferation; details: for inhibition of growth in the presence of doxycycline: doxycycline 10 ng/ml, DHEA 5.0 nM
MCF-7 cells = test: Proliferation in the absence of DHEA substrate; assay type: cell-based, human
[15] = system: MCF-7 Tet-off 3β-HSD2 aromatase cells; test: Inhibition of DHEA-stimulated proliferation; assay type: cell-based, human; details: for IC50: Homo sapiens, MCF7, 240 h, read-out: IC50, proliferation; for inhibition of growth in the presence of doxycycline: doxycycline 10 ng/ml, DHEA 5.0 nM
[16] = target: T1, R195P-1 mutant of 3β-HSD1; test: Inhibition of 3β-HSD activity of purified enzyme, Dixon analysis; assay type: biochemical
[17] = Table 2, substrate DHEA 1–100 μM, NAD+ 0.2 mM
[18] = Table 4, substrate DHEA 3-100 μM, NAD+ 200 μM, 27° C
[19] = ratio of proliferation IC50 values

C[C@]12CC[C@H](O)CC1=CC[C@@H]1[C@@H]2CC[C@]2(C)C(=O)CC[C@@H]12 [DHEA, dehydroepiandrosterone]
3β-HSD kcat [1]: 0.128 s⁻¹ | Km ([1]; read-out: 3β-HSD Km): 10.7 µM | 3β-HSD kcat [2]: 0.118 s⁻¹ | 3β-HSD kcat [3]: 0.0933 s⁻¹ | Km ([3]; read-out: 3β-HSD Km): 7.7 µM | 3β-HSD kcat (human 3β-HSD2 [4]; [17]): 0.145 s⁻¹ | 3β-HSD kcat (human 3β-HSD2 [4]; [18]): 0.118 s⁻¹ | 3β-HSD kcat (human 3β-HSD1 [5]; [17]): 0.055 s⁻¹ | 3β-HSD kcat (human 3β-HSD1 [5]; [18]): 0.055 s⁻¹

C[C@]1(O)CC[C@H]2[C@@H]3CC[C@@]45O[C@]4(C)C(O)=C(C#N)C[C@]5(C)[C@H]3CC[C@@]21C [epostane]
Ki (human 3β-HSD2 [6]): 980 nM | Ki (human 3β-HSD1 [7]): 70 nM | IC50 [8]: 2400 nM | Ki [9]: 1180 nM | effect on other enzymes in steroidogenesis [10]: no effect | fold higher affinity vs MCF7 Tet-off 3β-HSD2 aromatase cells [11, 19]: 12 fold | IC50 ([11]; read-out: IC50, proliferation, DHEA-stimulated growth): 200 nM

C[C@]12CC[C@@H]3c4ccc(O)cc4CC[C@H]3[C@@H]1CC[C@@H]2O [estradiol]
EC50 [12]: 0.24 nM | EC50 [13]: 0.32 nM

C[C@]12CC[C@@H]3c4ccc(O)cc4CC[C@H]3[C@@H]1CCC2=O [estrone]
EC50 [12]: 0.39 nM | EC50 [13]: 0.34 nM

N#Cc1ccc(C(c2ccc(C#N)cc2)n2cncn2)cc1 [letrozole]
inhibition of growth in the presence of doxycycline [14]: little change in rate | stimulation of proliferation / ER-agonist activity (MCF-7 cells): Neither trilostane nor letrozole stimulated the proliferation | IC50 [15]: 0.9 nM | inhibition of growth in the presence of doxycycline [15]: little change in rate

C[C@]12CC[C@H]3[C@@H](CC[C@@]45O[C@@H]4C(O)=C(C#N)C[C@]35C)[C@@H]1CC[C@@H]2O [trilostane, 2α-cyano-4α ,5α-epoxy-17β-ol-androstane-3-one]
IC50 ([14]; Homo sapiens, MCF7, 240 h, read-out: IC50, proliferation): 300 nM | inhibition of growth in the presence of doxycycline [14]: greatly attenuated | fold higher affinity vs MCF7 Tet-off 3β-HSD2 aromatase cells [14, 19]: 16 fold | mode of inhibition (human 3β-HSD2 [6]; Dixon analysis): noncompetitive | fold lower Ki for 3β-HSD1 compared to 3β-HSD2 (human 3β-HSD1 [7]; competitive 3β-HSD1 vs noncompetitive 3β-HSD2): 16 fold | effect on other enzymes in steroidogenesis [10]: no effect | Ki [16]: 2560 ± 220 nM | mode of inhibition ([16]; Dixon analysis): noncompetitive | stimulation of proliferation / ER-agonist activity (MCF-7 cells): Neither trilostane nor letrozole stimulated the proliferation | IC50 [15]: 4900 nM | inhibition of growth in the presence of doxycycline [15]: greatly attenuated
